The target of assay [1] is T1, Src (p60^c-src, partially purified) (Homo sapiens, UniProt P12931).
T1 construct: purchased UBI, Upstate Biotech, Inc
Put plainly: SRC-Inhibitor-Assay, time-resolved fluorescence kinase assay (Src). It counts as biochemical. The conditions noted are these: ATP 5 μM; enzyme pre-incubated with inhibitor 15 min at 15° C. As for the experimental part: (§1) The activity of the compounds according to this invention as inhibitors for the src-family tyrosine kinases was shown by using the following assay. • SRC-Inhibitor-Assay Parameters: • Reaction mixture: • ATP 5 μM • Peptide (Ro+Ja133-Ro): 10 μM • Ja133-Ro 196 nM • Ro 9.8 μM • PT66 230 ng/ml • Assay buffer: 4 mM MgCl2 • 2 mM TCEP • 50 mM HEPES • 0.1% Tween 20 • pH 7.3 • Enzyme: 2.5 U/ml • Inhibitor: max. 25 μM • min. 0.42 nM
(§2) Material: • Eu-labelled phosphotyrosine antibody: for Lck Cisbio Mab PT66-K, • for Src EG&G Wallac PT66 Eu-W1024 (all commercially available). • Peptides: Ro: NH2-A-E-E-E-I-Y-G-E-F-E-A-K-K-K-K-CONH2, and • Ja133-Ro: Ja133-G-Aminocaprylic acid-A-E-E-E-I-Y-G-E-F-E-A-K-K-K-K-CONH2, wherein Ja133 is LightCycler-Red 640-N-hydroxy succinimide ester; • whereby both peptides were synthesized by an optimized solid phase peptide synthesis protocol (Merrifield, Fed. Proc. Fed. Amer. Soc. Exp. Biol. 21 (1962) 412) on a Zinsser SMP350 peptide synthesizer. Shortly, the peptide was assembled on 160 mg (22.8 μmol scale) of a Rink-Linker modified polystyrene solid phase by repeatedly conjugating an twenty fold excess of amino acids each protected by temporary piperidine labile Fmoc- and permanent acid labile tert-Bu-, BOC- and O-tert-Bu-groups depending on the side chain function. The substrate sequence AEEEIYGEFEAKKKK was N-terminal additionally mounted with the spacer amino acids Aminocaprylic acid and Glycin. After cleavage of the N-terminal temporary protecting group the still attached and protected peptide was labeled with a 1.5 fold amount of LightCycler-Red 640-N-hydroxy succinimide ester (purchased from Roche Diagnostics GmbH) and triethylamine. After 3 hrs. the resin was washed with Dimethylformamide and Isopropanol until the eluates of the blue resin got colourless. […] The substrate was finally isolated by a preparative reverse phase HPLC purification.
(§3) The purification yielded 12.2 mg RP-HPLC single peak pure blue material (lyophilisate). The identity was proven by MALDI mass spectroscopy [2720.0]. • Enzymes: Upstate Lck (p56^kk, active), Upstate Src (p60^c-src, partially purified) were purchased from UBI, Upstate Biotech, Inc.
(§4) Time-resolved Fluorescence Assay: Reader: Perkin Elmer, Wallac Viktor 1420-040 multilabel counter; Liquid handling system: Beckman Coulter, Biomek 2000.
(§5) ATP, Tween™ 20, 4-(2-hydroxyethyl)-1-piperazineethanesulfonic acid (HEPES) were purchased from Roche Molecular Biochemicals, MgCl2 and MnCl2 were purchased from Merck Eurolab, Tris(2-carboxyethyl)phosphine hydrochloride (TCEP) was purchased from Pierce, 384 Well low volume fluorescence plates was purchased from Falcon.
(§6) At first the enzyme is pre-incubated for 15 min. at 15° C. in aqueous solution with corresponding amounts of inhibitors according to this invention. Then the phosphorylation reaction is started by adding a reaction mixture, containing ATP, Peptide and PT66, and subsequent shaking. The proceeding of this reaction is immediately monitored using time resolved fluorescence spectroscopy in a suitable well plate reader.
(§7) The IC50-values can be obtained from the reaction rates by using a non-linear curve fit (XLfit software (ID Business Solution Ltd., Guilford, Surrey, UK))

The target in assay [2] is T2, Lck (p56^kk, active) (Homo sapiens, UniProt P06239).
T2 construct: purchased UBI, Upstate Biotech, Inc
Put plainly: SRC-Inhibitor-Assay, time-resolved fluorescence kinase assay (Lck). The assay is classed as biochemical. The following applies: ATP 5 μM; enzyme pre-incubated with inhibitor 15 min at 15° C. As for the experimental part:
as §1, §2, §3, §4, §5, §6, §7

What is called IC50 is the concentration at which inhibition is half-maximal. Low readings indicate inhibition by little substance, high ones a need for much substance.

Structures are written as SMILES.

T2 sequence (P06239 whole entry, species assumed): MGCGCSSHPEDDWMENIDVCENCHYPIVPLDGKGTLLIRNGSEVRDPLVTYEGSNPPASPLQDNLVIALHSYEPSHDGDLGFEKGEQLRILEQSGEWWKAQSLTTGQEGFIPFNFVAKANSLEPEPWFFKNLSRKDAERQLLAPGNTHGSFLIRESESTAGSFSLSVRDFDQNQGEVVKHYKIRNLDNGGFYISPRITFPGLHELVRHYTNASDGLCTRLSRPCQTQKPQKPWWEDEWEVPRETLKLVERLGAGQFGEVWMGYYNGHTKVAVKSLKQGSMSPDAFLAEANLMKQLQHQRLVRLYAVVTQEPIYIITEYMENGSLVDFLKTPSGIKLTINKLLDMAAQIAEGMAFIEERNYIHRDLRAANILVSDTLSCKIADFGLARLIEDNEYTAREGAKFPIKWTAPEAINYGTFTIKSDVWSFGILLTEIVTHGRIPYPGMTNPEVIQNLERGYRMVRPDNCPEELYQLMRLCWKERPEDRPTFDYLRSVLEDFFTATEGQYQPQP
T1 sequence (P12931 whole entry, species assumed): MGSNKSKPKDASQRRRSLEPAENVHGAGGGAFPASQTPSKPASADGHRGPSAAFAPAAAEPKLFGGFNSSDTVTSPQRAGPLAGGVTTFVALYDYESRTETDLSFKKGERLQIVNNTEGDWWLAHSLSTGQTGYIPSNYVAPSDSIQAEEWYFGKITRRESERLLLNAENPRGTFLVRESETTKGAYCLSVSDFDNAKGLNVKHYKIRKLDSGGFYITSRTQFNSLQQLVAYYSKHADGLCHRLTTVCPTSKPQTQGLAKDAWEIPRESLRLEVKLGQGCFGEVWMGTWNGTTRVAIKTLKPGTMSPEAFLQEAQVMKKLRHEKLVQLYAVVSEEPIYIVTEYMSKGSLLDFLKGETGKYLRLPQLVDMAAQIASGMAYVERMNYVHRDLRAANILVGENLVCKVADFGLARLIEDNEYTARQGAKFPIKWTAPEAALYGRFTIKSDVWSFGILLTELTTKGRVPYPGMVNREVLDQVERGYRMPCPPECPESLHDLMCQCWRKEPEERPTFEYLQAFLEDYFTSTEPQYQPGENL

Take `CN1C(=O)N(c2cc(NC(=O)c3cccc(-c4ccccc4)c3)ccc2Cl)Cc2cnc(N)nc21` [Example 2-3, Biphenyl-3-carboxylic acid [3-(7-amino-1-methyl-2-oxo-1,4-dihydro-2H-pyrimido[4,5-d]pyrimidin-3-yl)-4-chloro-phenyl]-amide]: the IC50 in assay [1] and in assay [2] was 50 to 150 nM in each case.
Consider `CN1C(=O)N(c2cc(NC(=O)c3ccc(-c4ccccc4)cc3)ccc2Cl)Cc2cnc(N)nc21` [Example 1, Biphenyl-4-carboxylic acid[3-(7-amino-1-methyl-2-oxo-1,4-dihydro-2H-pyrimido[4,5-d]pyrimidin-3-yl)-4-chloro-phenyl]-amide], for which the IC50 in assay [1] and in assay [2] was 50 to 150 nM each time.
In the case of `CN1C(=O)N(c2cc(NC(=O)c3ccc(-c4ccccn4)cc3)ccc2Cl)Cc2cnc(N)nc21` [Example 2-22, N-[3-(7-Amino-1-methyl-2-oxo-1,4-dihydro-2H-pyrimido[4,5-d]pyrimidin-3-yl)-4-chloro-phenyl]-4-pyridin-2-yl-benzamide], the concentration for half-maximal inhibition (IC50) in assay [1] and in assay [2] was 50 to 150 nM throughout.
For the compound `CN1C(=O)N(c2cc(NC(=O)C=Cc3ccccc3)ccc2Cl)Cc2cnc(N)nc21` [Example 2-14, N-[3-(7-Amino-1-methyl-2-oxo-1,4-dihydro-2H-pyrimido[4,5-d]pyrimidin-3-yl)-4-chloro-phenyl]-3-phenyl-acrylamide], the IC50 came out at 41 nM in assay [1] and 38.5 nM in assay [2].
In the same order, the values of `CN1C(=O)N(c2cc(NC(=O)c3ccc(N4CCOCC4)cc3)ccc2Cl)Cc2cnc(N)nc21` [Example 2-7, N-[3-(7-Amino-1-methyl-2-oxo-1,4-dihydro-2H-pyrimido[4,5-d]pyrimidin-3-yl)-4-chloro-phenyl]-4-morpholin-4-yl-benzamide] are 73.5 nM and 168 nM.
In the same order, the values of `CN1C(=O)N(c2cc(NC(=O)c3ccc(-c4ccc[nH]4)cc3)ccc2Cl)Cc2cnc(N)nc21` [Example 2-24, N-[3-(7-Amino-1-methyl-2-oxo-1,4-dihydro-2H-pyrimido[4,5-d]pyrimidin-3-yl)-4-chloro-phenyl]-4-(1H-pyrrol-2-yl)-benzamide] are 50 to 150 nM and 50 to 150 nM.
Take `CN1C(=O)N(c2cc(NC(=O)c3cccc4ccccc34)ccc2Cl)Cc2cnc(N)nc21` [Example 2-15, Naphthalene-1-carboxylic acid [3-(7-amino-1-methyl-2-oxo-1,4-dihydro-2H-pyrimido[4,5-d]pyrimidin-3-yl)-4-chloro-phenyl]-amide]: the 50% inhibitory concentration (IC50) in assay [1] and in assay [2] was 50 to 150 nM throughout.

Source of the values: US7494993B2, “Amide derivatives of 7-amino-3-phenyl-dihydropyrimido[4,5-d]pyrimidinones, their manufacture and use as pharmaceutical agents” (Hoffmann-La Roche Inc., priority 2004, dated 2009).
